Laboratory results taken from patent publication US9458194B2, “Compounds useful in the treatment and/or care of the skin and their cosmetic or pharmaceutical compositions” (Lubrizol Advanced Materials, Inc., priority 2013, dated 2016).
Values joined by “and” are separate entries in the source; they are usually repeats but may differ in a detail not shown here. Equal values may be shown once.

Key:
LOXL1 = test: Immunofluorescence of LOXL1 protein expression in human dermal fibroblasts; format: cell-based; details: 0.5 mg/mL, 48 hours, HDFa
Procedure: In this experiment the number of times that the expression of the proteins fibulin-5 and LOXL1 in human dermal fibroblasts is increased with regard to the basal levels in untreated cells (negative control) when treating the cells with 0.5 mg/ml of the product Ac-L-Asp-L-Val-L-Lys-L-Tyr-OH and it is compared with the effect of Interleukin-1β (IL-1β) at 20 ng/ml and TGF-β at 5 ng/ml (positive controls), which increase an average of 1.5 times and 2 times, respectively, the expression of these proteins, in the same conditions.
Adult human dermal fibroblasts were seeded (HDFa) (2.5×10^3 cells/well) in a 96-well transparent plate, treated with polylysine, and were incubated in complete medium 106 for 72 hours at 37° C. in an atmosphere with 5% CO2. After the incubation, the cells were treated with the different compounds in complete medium 106 for 48 hours at 37° C. in an atmosphere with 5% CO2. As positive controls of increase of the expression of the proteins fibulin-5 and LOXL1, 5 ng/ml of TGF-β and 20 ng/ml of IL-1β were used and as a negative control untreated cells were used, just with complete medium 106. The incubations and the treatments were carried out in quadruplicate for each condition. After the treatment, the levels of expression of both proteins were quantified relatively by using specific fluorescent antibodies, photographic recording by microscopy and subsequent quantification of the fluorescent signal using image processing software, the number of total cells by fluorescent staining of the nuclei (DAPI) and subsequent quantification in the same images. […] 16 hours later all the samples were stained with DAPI (4′,6-Diamidino-2-Phenylindole), fluorescent marker for the staining of nuclei, and the photographic recording was carried out by fluorescence microscopy in a Leica microscope. 2-4 images were taken per condition and per protein and the fluorescent signals were quantified (IOD) corresponding to each protein and the nuclei by means of image analysis software. […]

[1] = tested on: human LOXL1 gene promoter; test: Luminescence assay of human LOXL1 gene promoter activation (Renilla luciferase); format: cell-based; details: 16-24 hours
Procedure: The effect of the compounds of the invention on the activity of the fibulin-5 and LOXL1 promoters was studied and compared to the levels of basal expression of the untreated cells (negative control) and with the effect of Interleukin-1β (IL-1β) in the same conditions.
Cells from an epithelial cell line doubly transfected with fibulin-5 and LOXL1 human promoters in which the luciferase gene is under the regulatory control of said promoters (4×10^4 cells/well) were seeded in a white plate and in a 96-well transparent plate, both treated with polylysine, and were incubated in Dulbecco's Modified Eagle Medium (DMEM-Glutamax™), with 10% of FBS, 1% Penicillin-Streptomycin (P/S), 1 mg/ml of Geneticin® (G418) and […] at 37° C. in at atmosphere with 5% CO2. After the incubation, the cells were incubated for 6 hours at 37° C. in at atmosphere with 5% CO2 with DMEM without serum. Then, this medium was removed and the cells were treated with different compounds at 0.1 mg/ml, 0.5 mg/ml, 1 mg/ml or 2 mg/mL in DMEM/1% FBS for 16-24 hours. As a positive control to activate the fibulin-5 and LOXL1 promoters 10 ng/ml of IL-1β were used and as a negative control untreated cells were used, just with DMEM/1% FBS. The incubations and treatments were carried out in parallel in the white plate and the transparent plate and in triplicate for each condition. After the treatment, the relative light units per second were determined (RLU/s) in the white plate by means of consecutive quantification of the activities of Firefly luciferase (fibulin-5 promoter) and Renilla luciferase (LOXL1 promoter), and the number of total cells/well in the transparent plate by means of staining with Crystal Violet (CV). To determine the Firefly and Renilla luciferase activities the Dual-Glo Luciferase Assay System kit by Promega was used. The cells were briefly lysed and the Firefly luciferase substrate was added. After incubating for 10 min at 25° C., the RLU/s were quantified by luminescence reader (Lumistar-BMG). Then the Firefly signal was extinguished and the Renilla luciferase substrate was added. After incubating for 5 min at 25° C., the RLU/s were quantified by the same luminescence reader. With regard to the determination of the total number of cells by Crystal Violet, the CV dyes the DNA of the cells and the quantity of dye taken by the cells can be measured in an absorbency reader at 630 nm (Multiskan Ascent). The color obtained is directly proportional to the total number of cells per well. The cells were briefly incubated with 0.05% CV plus 4% Formalin for 20 minutes and after several washes with Milli-Q water, the cells were left to dry for 1-2 hours and then 0.1 M of HCl was added for its immediate reading. The RLU/s of the luciferases corresponding to each promoter were normalized by the average of the total number of cells per condition. Three independent assays with 3 measurements per assay were carried out for Ac-L-Asp-L-Val-L-Lys-L-Tyr-OH at 0.1 mg/mL and 1 mg/mL. 1 assay with 3 measurements was carried out for the other compounds and concentrations.
The increase in the activity of the promoters with regard to the levels of expression of the negative control was determined.

## Ac-L-Asp-L-Val-L-Lys-L-Tyr-OH (Ac-DVKY-OH)
LOXL1
  Increase in the expression of the protein LOXL1 with regard to the negative control: 73% and 72.71%
[1]; 0.1 mg/mL
  Increase in the activity of the human promoter of the LOXL1 gene with regard to the negative control: 7.12%
[1]; 1 mg/mL
  Increase in the activity of the human promoter of the LOXL1 gene with regard to the negative control: 27% and 27.06%
[1]; 2 mg/mL
  Increase in the activity of the human promoter of the LOXL1 gene with regard to the negative control: 10.41%
